Measured values published in PMC9774241, “Associating Biological Activity and Predicted Structure of Antimicrobial Peptides from Amphibians and Insects” (Antibiotics, 2022).
Converted amounts (≈) assume the structure as drawn. Residues, ends and D or L forms follow the SMILES beside them.

Assays:
Assay type in all cases: cell-based
Settings in all cases: broth microdilution in MHB, peptide 128 down to 0.5 µg/mL, 20–24 h at 37 °C, no visible growth; range of three independent experiments
[1] = tested on: Staphylococcus aureus ATCC 29213
Procedure: (§1) Bacteria were grown overnight at 37 °C in Mueller-Hinton Broth (MHB; Sigma-Aldrich, St. Louis. MO, USA) in a shaking incubator and aliquoted into cryovials with a 50% glycerol solution in a 1:1 ratio. No additives were added to the MHB during the growth of bacterial isolates. Glycerol stocks were stored at −80 °C.
(§2) The antimicrobial activity of the putative AMPs was determined by a broth microdilution assay as described by the Clinical and Laboratory Standards Institute, with the published adaptations for testing of cationic peptides. Escherichia coli 25922 and Staphylococcus aureus 29213 isolates were purchased from the American Type Culture Collection (ATCC; Manassas, VA, USA). A human clinical isolate of Salmonella enterica serovar Enteritidis was provided by the BC Centre for Disease Control. Bacteria from stocks stored at −80 °C were streaked onto nonselective Columbia blood agar with 5% sheep blood (Oxoid) and incubated overnight at 37 °C. Next, 2–4 colonies were streaked onto a new agar plate to ensure uniform health of colonies used in the broth microdilution assay. Isolated colonies were suspended in MHB and the optical density was measured with a spectrophotometer to create an initial inoculum concentration of approximately 1 × 10^8 cfu/mL. The inoculum was diluted 1:250 to a final concentration of 2–8 × 10^5 cfu/mL, which was confirmed by performing a Total Viability Count (TVC). The TVC consisted of plating a 1:1000 dilution of the final inoculum on nonselective media and was also used to confirm the health and purity of the inoculum in each trial.
(§3) Lyophilized 80 µg peptide aliquots synthesized by GenScript (Piscataway, NJ, USA) were resuspended to 1.28 mg/mL with UltraPure water (Thermo Fisher Scientific, Waltham, MA, USA) and serially diluted in polypropylene 96-well microtiter plates (Greiner Bio-One #650261, Kremsmünster, Austria) from 128 down to 0.5 µg/mL. Two columns per plate were reserved for growth and sterility controls. Inoculum was added to the wells containing the peptide and the growth control. Plates were incubated for 20–24 h at 37 °C. The minimum inhibitory concentration (MIC) was determined as the lowest peptide concentration where there was no visible bacterial growth.

[2] = tested on: Escherichia coli ATCC 25922
Procedure: as §1, §2, §3

[3] = tested on: Salmonella enterica serovar Enteritidis (human clinical isolate)
Procedure: as §1, §2, §3

Structure (SMILES) | MIC, S. aureus ATCC 29213 [1] | MIC, E. coli ATCC 25922 [2] | MIC, Salmonella Enteritidis [3]
CC[C@H](C)[C@H](NC(=O)CNC(=O)[C@H](CCCNC(=N)N)NC(=O)[C@H](CCCCN)NC(=O)[C@H](CCCCN)NC(=O)[C@H](CCCNC(=N)N)NC(=O)[C@@H]1CCCN1C(=O)[C@@H](NC(=O)[C@H](CCSC)NC(=O)[C@H](CC(C)C)NC(=O)[C@@H](N)CCCCN)[C@@H](C)CC)C(=O)N[C@@H](Cc1ccccc1)C(=O)NCC(=O)NCC(=O)N[C@@H](CC(C)C)C(=O)N[C@@H](CC(C)C)C(=O)N[C@@H](CCCCN)C(=O)N[C@H](C(=O)NCC(=O)N[C@@H](CCCCN)C(=O)N[C@@H](CCCCN)C(=O)N[C@H](C(=O)N[C@@H](C)C(=O)N[C@@H](CS)C(=O)NCC(=O)N[C@@H](CC(C)C)C(=O)N[C@@H](CO)C(=O)NCC(=O)N[C@@H](CC(C)C)C(=O)N[C@@H](CS)C(=O)O)[C@@H](C)CC)C(C)C [OdTo4] (H-KLMIPRKKRGIFGGLLKVGKKIACGLSGLC-OH; N-terminus and C-terminus assumed) | 16 µg/mL (≈ 5.02 µM) | 8 to 16 µg/mL | 16 µg/mL (≈ 5.02 µM)
CC(C)C[C@H](NC(=O)CNC(=O)[C@@H](NC(=O)[C@@H](NC(=O)CNC(=O)[C@H](CS)NC(=O)[C@H](CC(C)C)NC(=O)[C@@H](NC(=O)[C@H](CCCCN)NC(=O)[C@H](CCCCN)NC(=O)CNC(=O)[C@@H](NC(=O)CNC(=O)[C@H](CC(C)C)NC(=O)[C@@H](NC(=O)[C@H](CCCCN)NC(=O)CNC(=O)[C@H](CC(C)C)NC(=O)[C@H](CC(C)C)NC(=O)CN)C(C)C)C(C)C)C(C)C)C(C)C)[C@@H](C)O)C(=O)N[C@@H](CS)C(=O)O [PeNi1] (H-GLLGKVLGVGKKVLCGVTGLC-OH) | 4 µg/mL (≈ 1.99 µM) | 4 µg/mL (≈ 1.99 µM) | 8 to 16 µg/mL
CC(C)C[C@H](NC(=O)CNC(=O)[C@H](CO)NC(=O)[C@@H](NC(=O)[C@@H](NC(=O)[C@H](CS)NC(=O)[C@H](CC(C)C)NC(=O)[C@@H](NC(=O)[C@H](CCCCN)NC(=O)[C@H](CCCCN)NC(=O)CNC(=O)[C@@H](NC(=O)CNC(=O)[C@H](CC(C)C)NC(=O)[C@@H](NC(=O)[C@H](CCCCN)NC(=O)CNC(=O)[C@H](CC(C)C)NC(=O)[C@H](CC(C)C)NC(=O)CN)C(C)C)C(C)C)C(C)C)C(C)C)C(C)C)C(=O)N[C@@H](CS)C(=O)O [PeNi2] (H-GLLGKVLGVGKKVLCVVSGLC-OH; N-terminus and C-terminus assumed) | 4 µg/mL (≈ 1.96 µM) | 4 µg/mL (≈ 1.96 µM) | 16 to 32 µg/mL
CC(C)C[C@H](NC(=O)CN)C(=O)N[C@@H](CC(C)C)C(=O)NCC(=O)N[C@@H](CCCCN)C(=O)N[C@H](C(=O)N[C@@H](CC(C)C)C(=O)NCC(=O)N[C@H](C(=O)NCC(=O)N[C@@H](CCCCN)C(=O)N[C@@H](CCCCN)C(=O)N[C@H](C(=O)N[C@@H](CC(C)C)C(=O)N[C@@H](CS)C(=O)NCC(=O)N[C@H](C(=O)N[C@H](C(=O)NCC(=O)N[C@@H](CCCNC(=N)N)C(=O)N[C@@H](CCC(=O)O)C(=O)N[C@@H](CCCNC(=N)N)C(=O)N[C@@H](CS)C(=O)N[C@@H](CCC(N)=O)C(=O)O)[C@@H](C)O)C(C)C)C(C)C)C(C)C)C(C)C [PeNi5] (H-GLLGKVLGVGKKVLCGVTGRERCQ-OH; N-terminus and C-terminus assumed) | > 128 µg/mL | 32 µg/mL (≈ 12.9 µM) | 64 µg/mL (≈ 25.9 µM)
CC[C@H](C)[C@H](NC(=O)[C@@H](N)C(C)C)C(=O)N1CCC[C@H]1C(=O)N[C@@H](Cc1ccccc1)C(=O)N[C@H](C(=O)N[C@@H](C)C(=O)N[C@@H](CO)C(=O)N[C@H](C(=O)N[C@@H](C)C(=O)N[C@@H](C)C(=O)N[C@@H](CCC(=O)O)C(=O)N[C@@H](CCSC)C(=O)N[C@@H](CCSC)C(=O)N[C@@H](Cc1c[nH]cn1)C(=O)N[C@@H](Cc1c[nH]cn1)C(=O)N[C@H](C(=O)N[C@@H](Cc1ccc(O)cc1)C(=O)N[C@@H](CS)C(=O)N[C@@H](C)C(=O)N[C@@H](C)C(=O)N[C@@H](CO)C(=O)N[C@@H](CCCCN)C(=O)N[C@@H](CCCNC(=N)N)C(=O)N[C@@H](CS)C(=O)N[C@@H](CCCCN)C(=O)N[C@@H](CC(N)=O)C(=O)O)C(C)C)C(C)C)C(C)C [PeNi7] (H-VIPFVASVAAEMMHHVYCAASKRCKN-OH; N-terminus and C-terminus assumed) | > 128 µg/mL | 128 µg/mL (≈ 44.7 µM) | > 128 µg/mL
CC[C@H](C)[C@H](NC(=O)CN)C(=O)N[C@@H](CC(C)C)C(=O)N[C@@H](CC(C)C)C(=O)N[C@@H](CC(N)=O)C(=O)N[C@H](C(=O)N[C@@H](CC(C)C)C(=O)N[C@@H](CCCCN)C(=O)NCC(=O)N[C@@H](C)C(=O)N[C@@H](C)C(=O)N[C@@H](CCCCN)C(=O)N[C@@H](CC(N)=O)C(=O)N[C@H](C(=O)N[C@@H](C)C(=O)NCC(=O)N[C@H](C(=O)N[C@@H](CC(C)C)C(=O)N[C@@H](CC(C)C)C(=O)N[C@@H](CC(=O)O)C(=O)N[C@@H](CCCCN)C(=O)N[C@@H](CC(C)C)C(=O)N[C@@H](CCCCN)C(=O)N[C@@H](CS)C(=O)N[C@@H](CCCCN)C(=O)N[C@H](C(=O)N[C@H](C(=O)NCC(=O)NCC(=O)N[C@@H](CS)C(=O)O)[C@@H](C)O)[C@@H](C)CC)C(C)C)C(C)C)[C@@H](C)O [PeNi8] (H-GILLNTLKGAAKNVAGVLLDKLKCKITGGC-OH; N-terminus and C-terminus assumed) | 4 to 8 µg/mL | 8 µg/mL (≈ 2.66 µM) | 64 µg/mL (≈ 21.2 µM)
CC[C@H](C)[C@H](NC(=O)[C@H](CCCCN)NC(=O)CNC(=O)[C@H](CC(C)C)NC(=O)[C@H](CC(C)C)NC(=O)CN)C(=O)N[C@@H](CC(C)C)C(=O)NCC(=O)N[C@H](C(=O)NCC(=O)N[C@@H](CCCCN)C(=O)N[C@@H](CCCCN)C(=O)N[C@H](C(=O)N[C@@H](CC(C)C)C(=O)N[C@@H](CS)C(=O)NCC(=O)N[C@H](C(=O)N[C@@H](CO)C(=O)NCC(=O)N[C@@H](CC(C)C)C(=O)N[C@@H](CS)C(=O)O)C(C)C)C(C)C)C(C)C [PeNi9] (H-GLLGKILGVGKKVLCGVSGLC-OH) | 4 to 8 µg/mL | 2 to 4 µg/mL | 8 to 16 µg/mL
CC[C@H](C)[C@H](NC(=O)CNC(=O)[C@H](C)NC(=O)[C@@H](NC(=O)[C@H](CC(N)=O)NC(=O)[C@H](CCCCN)NC(=O)[C@H](C)NC(=O)[C@H](C)NC(=O)CNC(=O)[C@H](CCCCN)NC(=O)[C@@H](NC(=O)[C@@H](NC(=O)[C@H](CC(=O)O)NC(=O)[C@H](CC(C)C)NC(=O)[C@H](CC(C)C)NC(=O)[C@H](CC(C)C)NC(=O)CN)[C@@H](C)O)C(C)C)C(C)C)C(=O)N[C@@H](CC(C)C)C(=O)N[C@@H](CC(C)C)C(=O)N[C@@H](CC(N)=O)C(=O)N[C@@H](CCCCN)C(=O)N[C@@H](CC(C)C)C(=O)N[C@@H](CCCCN)C(=O)N[C@@H](CS)C(=O)N[C@@H](CCCCN)C(=O)N[C@H](C(=O)N[C@H](C(=O)NCC(=O)N[C@@H](CC(=O)O)C(=O)N[C@@H](CS)C(=O)O)[C@@H](C)O)C(C)C [PeNi10] (H-GLLLDTVKGAAKNVAGILLNKLKCKVTGDC-OH; N-terminus and C-terminus assumed) | 16 to 32 µg/mL | 8 µg/mL (≈ 2.62 µM) | 64 to 128 µg/mL
CC[C@H](C)[C@H](NC(=O)CN)C(=O)N[C@@H](CC(C)C)C(=O)N[C@H](C(=O)N[C@@H](CC(=O)O)C(=O)N[C@H](C(=O)N[C@@H](CC(C)C)C(=O)N[C@@H](CCCCN)C(=O)NCC(=O)N[C@@H](C)C(=O)N[C@@H](C)C(=O)N[C@@H](CCCCN)C(=O)N[C@@H](CC(N)=O)C(=O)N[C@H](C(=O)N[C@@H](C)C(=O)NCC(=O)N[C@H](C(=O)N[C@@H](CC(C)C)C(=O)N[C@@H](CC(C)C)C(=O)N[C@@H](CC(=O)O)C(=O)N[C@@H](CCCCN)C(=O)N[C@@H](CC(C)C)C(=O)N[C@@H](CCCCN)C(=O)N[C@@H](CS)C(=O)N[C@@H](CCCCN)C(=O)N[C@H](C(=O)N[C@H](C(=O)NCC(=O)NCC(=O)N[C@@H](CS)C(=O)O)[C@@H](C)O)[C@@H](C)CC)C(C)C)C(C)C)[C@@H](C)O)[C@@H](C)O [PeNi11] (H-GILTDTLKGAAKNVAGVLLDKLKCKITGGC-OH; N-terminus and C-terminus assumed) | 64 µg/mL (≈ 21.3 µM) | 8 to 16 µg/mL | 128 µg/mL (≈ 42.6 µM)
